Experimental data as given in patent US9006278B2, “Controlled release systems of pluribioactive antifungal drugs and applications thereof” (Poly-Med, Inc., priority 2010, dated 2015).

How the values were obtained:
Format in all cases: cell-based
Staphylococcus aureus = assay: Broth culture growth inhibition, absorbance at 600 nm (Staphylococcus aureus); details: overnight (approx. 16 hours), read-out: % Inhibition S. aureus
Procedure: (§1) Bacterial and fungal cultures (Staphylococcus aureus and Candida albicans) were maintained according to manufacturer (ATCC) instructions. Broth was inoculated according to 0.5 McFarland standard (0.05 absorbance reading). Miconazole or ketoconazole was dissolved in ethanol to create a stock solution. Cultures were incubated overnight (approximately 16 hours), at which time relative absorbance was recorded for each sample using a spectrophotometer (600 nm wavelength). Absorbance values were then used to calculate percent inhibition.

[1] = tested on: OVCAR3 ovarian cancer cells; assay: Cell viability, CellTiter 96 AQueous One (OVCAR3); details: Homo sapiens, OVCAR-3, 48 h, 2 days
Procedure: (§2) To examine the effect of miconazole and ketoconazole on cancer cells (SKOV3, OVCAR3, and MCF7) and vascular cells (human aortic smooth muscle and umbilical vein endothelium), each cell type was seeded in separate 24-well plates at a density of approximately 50,000 to 100,000 cells/cm^2. After incubation under standard cell culture conditions (that is, a 37° C., humidified, 5% CO2 environment) for approximately 24 hours, media was aspirated from each well, and replaced with the appropriate treatments. Miconazole or ketoconazole was dissolved in ethanol to create a stock solution. […] The same volume of ethanol was added to control wells, but no drug was present. Cells were further incubated for 2 days. At that time, cell viability was measured using a commercially available kit, according to manufacturer instructions (CellTiter 96® AQueous One Solution Cell Proliferation Assay, Promega). All samples were prepared in triplicate. Percent inhibition was then calculated using the absorbance values.

[2] = tested on: umbilical vein endothelium cells; assay: Cell viability, CellTiter 96 AQueous One (endothelium); details: Homo sapiens, 48 h, 2 days, read-out: % Inhibition Endothelial
Procedure: as §2

MCF7 breast cancer cells = assay: Cell viability, CellTiter 96 AQueous One (MCF7); details: Homo sapiens, MCF7, 48 h, 2 days
Procedure: as §2

[3] = tested on: human aortic smooth muscle cells; assay: Cell viability, CellTiter 96 AQueous One (smooth muscle); details: 48 h, 2 days
Procedure: as §2

[4] = tested on: SKOV3 ovarian cancer cells; assay: Cell viability, CellTiter 96 AQueous One (SKOV3); details: Homo sapiens, SK-OV-3, 48 h, 2 days
Procedure: as §2

Candida albicans = assay: Broth culture growth inhibition, absorbance at 600 nm (Candida albicans); details: overnight (approx. 16 hours), read-out: % Inhibition C. albicans
Procedure: as §1

With `CC(=O)N1CCN(c2ccc(OCC3COC(Cn4ccnc4)(c4ccc(Cl)cc4Cl)O3)cc2)CC1` (stereo not shown) [Ketoconazole, ketoconazole] the inhibition at 40 µg/mL (Staphylococcus aureus; 40 μg/mL) was 32.7%, the inhibition at 80 µg/mL (Staphylococcus aureus; 80 μg/mL) was 67.6% and the inhibition at 40 µg/mL ([1]; 40 μg/mL) was 0%. It also gave an inhibition at 80 µg/mL ([1]; 80 μg/mL) of 57%, an inhibition at 40 µg/mL ([2]; 40 μg/mL) of 16% and an inhibition at 80 µg/mL ([2]; 80 μg/mL) of 38%. The inhibition at 40 µg/mL (MCF7 breast cancer cells; 40 μg/mL) was 58%, the inhibition at 80 µg/mL (MCF7 breast cancer cells; 80 μg/mL) was 50% and the inhibition at 40 µg/mL ([3]; 40 μg/mL) was 31%. The inhibition at 80 µg/mL ([3]; 80 μg/mL) was 68%, the inhibition at 40 µg/mL ([4]; 40 μg/mL) was 0% and the inhibition at 80 µg/mL ([4]; 80 μg/mL) was 51%. The inhibition at 40 µg/mL (Candida albicans; 40 μg/mL) was 93.8% and the inhibition at 80 µg/mL (Candida albicans; 80 μg/mL) was 98.6%.

Compound `Clc1ccc(COC(Cn2ccnc2)c2ccc(Cl)cc2Cl)c(Cl)c1` (stereo not shown) [Miconazole, miconazole] has an inhibition at 20 µg/mL (Staphylococcus aureus; 20 μg/mL) of 76.7%, an inhibition at 60 µg/mL (Staphylococcus aureus; 60 μg/mL) of 65% and an inhibition at 20 µg/mL ([1]; 20 μg/mL) of 19%. The inhibition at 60 µg/mL ([1]; 60 μg/mL) was 57%, the inhibition at 20 µg/mL ([2]; 20 μg/mL) was 18% and the inhibition at 60 µg/mL ([2]; 60 μg/mL) was 58%. It also gave an inhibition at 20 µg/mL (MCF7 breast cancer cells; 20 μg/mL) of 19%, an inhibition at 60 µg/mL (MCF7 breast cancer cells; 60 μg/mL) of 55% and an inhibition at 20 µg/mL ([3]; 20 μg/mL) of 58%. The inhibition at 60 µg/mL ([3]; 60 μg/mL) was 84%, the inhibition at 20 µg/mL ([4]; 20 μg/mL) was 13% and the inhibition at 60 µg/mL ([4]; 60 μg/mL) was 61%. For the same compound, the inhibition at 20 µg/mL (Candida albicans; 20 μg/mL) was 98.3% and the inhibition at 60 µg/mL (Candida albicans; 60 μg/mL) was 73.2%.
